For 2 compounds, IC50 results are on record in patent publication US6632820B1, “Pyrimidine compounds” (AstraZeneca AB, priority 1998, dated 2003).

The target of the test is T1, CDK4/Cyclin D1 (Homo sapiens, UniProt P11802).
T1 construct: made in house; host or cells: SF21 insect cells (Spodoptera frugiperda), baculovirus co-infection, vector pVL1393
Nature of the test: CDK Inhibition Assay (Scintillation Proximity Assay, GST-Retinoblastoma substrate). Conditions: in-vitro kinase assay, incorporation of [γ-33-P]-ATP into GST-Rb, 60 minutes at room temperature; read-out: CDK4 inhibitory activity IC50. The format is biochemical. The procedure:
The compounds were tested in an in vitro kinase assay in 96 well format using Scintillation Proximity Assay (SPA—obtained from Amersham) for measuring incorporation of [γ-33-P]-Adenosine Triphosphate into a test substrate (GST-Retinoblastoma). In each well was placed the compound to be tested (diluted in DMSO and water to correct, concentrations) and in control wells either p 16 as an inhibitor control or DMSO as a positive control. Approximately 0.5 μl of CDK4/Cyclin D1 partially-purified enzyme (amount dependent on enzyme activity) diluted in 25 μl incubation buffer was added to each well then 20 μl of GST-Rb/ATP/ATP33 mixture (containing 0.54 μg GST-Rb and 0.2 μM ATP and 0.14 μCi [γ-33-P]-Adenosine Triphosphate), and the resulting mixture shaken gently, then incubated at room temperature for 60 minutes. To each well was then added 150 μL stop solution containing (0.8 mg/well of Protein A-PVT SPA bead (Amersham)), 20 pM/well of Anti-Glutathione Transferase, Rabbit IgG (obtained from Molecular Probes), 61 mM EDTA and 50 mM HEPES pH 7.5 containing 0.05% sodium azide. The plates were sealed with Topseal-S plate sealers, left for two hours then spun at 2500 rpm, 1124×g., for 5 minutes. The plates were read on a Topcount for 30 seconds per well. […]
On the technique in general: In a scintillation proximity assay essentially only radioactivity close to the scintillant gives light.

T1 sequence (P11802 whole entry): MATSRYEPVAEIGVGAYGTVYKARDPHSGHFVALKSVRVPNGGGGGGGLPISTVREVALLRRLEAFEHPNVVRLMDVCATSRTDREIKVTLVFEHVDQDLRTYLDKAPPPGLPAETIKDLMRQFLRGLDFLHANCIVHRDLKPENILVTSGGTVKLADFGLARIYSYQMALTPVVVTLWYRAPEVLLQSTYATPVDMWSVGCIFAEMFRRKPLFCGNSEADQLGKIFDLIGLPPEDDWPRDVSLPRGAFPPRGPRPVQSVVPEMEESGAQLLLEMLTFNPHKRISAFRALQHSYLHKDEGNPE
T1 sequence (P24385 whole entry partner): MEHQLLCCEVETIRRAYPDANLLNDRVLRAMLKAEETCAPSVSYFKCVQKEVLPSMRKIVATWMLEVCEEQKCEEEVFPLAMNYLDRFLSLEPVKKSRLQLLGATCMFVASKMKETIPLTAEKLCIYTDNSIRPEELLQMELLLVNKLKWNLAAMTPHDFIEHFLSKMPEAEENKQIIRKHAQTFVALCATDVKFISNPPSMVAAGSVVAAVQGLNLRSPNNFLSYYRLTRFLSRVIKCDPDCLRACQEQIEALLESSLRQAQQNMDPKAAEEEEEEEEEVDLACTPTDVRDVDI

As usually defined, the IC50 is the concentration at which inhibition is half-maximal. Consider `Cc1ccc(Cl)c(N(CC#N)c2cc(Nc3ccc(OCC(O)CN(C)C)cc3)ncn2)c1` (centres unmarked) [Example 2, 4-{4-[3-(N,N-Dimethyl)amino-2-hydroxylropoxy]anilino}-6-(N-cyanomethyl-2-chloro-5-methylanilino)pyrimidine], for which the IC50 is 70 nM. As for `Cc1ccc(N(CC#N)c2cc(Nc3ccc(OCC(O)CN(C)C)cc3)ncn2)c(Br)c1` (centres unmarked) [Example 1, 4-{4-[3-(N,N-Dimethyl)amino-2-hydroxyproroxy]anilino}-6-(N-cyanomethyl-2-bromo-4-methylanilino)pyrimidine], the IC50 stood at 110 nM.
